Measurements as given in patent US8394825B2, “Compound” (Sterix Limited, priority 2007, dated 2013).

system: DU145 cells; test: Antiproliferative assay in DU145 cells, WST-1 cell proliferation assay, 96 hours (GI50); type: cell-based; conditions: 96 hours post-treatment, 50% growth inhibition, read-out: DU-145 GI50
Protocol: Antiproliferative assays. DU145 cells were seeded into 96 well microtiter plates (5000 cells/well) and treated with […] of compounds or with vehicle control. At 96 hours post-treatment, live cell counts were determined by WST-1 cell proliferation assay (Roche, Penzberg, Germany), as per manufacturer's instructions. Viability results were expressed as a percentage of mean control values resulting in the calculation of the 50% growth inhibition (GI50). All experiments were performed in triplicate.

Row | Compound | GI50 [µM]
1 | COc1cccc(S(=O)(=O)N2CCc3cc(OS(N)(=O)=O)c(OC)cc3C2=O)c1 [compound 205, 7-Methoxy-2-(3-methoxy-benzenesulfonyl)-6-O-sulfamoyl-3,4-dihydro-2H-isoquinolin-1-one] | > 100
2 | COc1cc2c(cc1OS(N)(=O)=O)CCN(S(=O)(=O)c1cccc(Cl)c1)C2=O [compound 207, 2-(3-Chloro-benzenesulfonyl)-7-methoxy-6-O-sulfamoyl-3,4-dihydro-2H-isoquinolin-1-one] | > 100
3 | COc1cc(CN2Cc3cc(OC)c(OS(N)(=O)=O)cc3CC2C)cc(OC)c1 (stereo not shown) [compound 221, 2-(3,5-dimethoxy-benzyl)-7-methoxy-3-methyl-1,2,3,4-tetrahydro-isoquinolin-6-O-sulfamate] | < 10
4 | COc1cccc(CN2Cc3cc(OC)c(OS(N)(=O)=O)cc3CC2C)c1 (stereo not shown) [compound 220, 2-(3-Methoxybenzyl)-1,2,3,4-tetrahydro-7-methoxy-3-methylisoquinolin-6-O-sulfamate] | < 10

same assay, conditions: 96 hours post-treatment, triplicate, read-out: DU-145 GI50

Row | Compound | GI50 [µM]
5 | COc1cccc(C(=O)N2CCc3cc(OS(N)(=O)=O)c(OC)cc3C2=O)c1 [compound 149, 7-Methoxy-2-(3-methoxybenzoyl)-6-O-sulfamoyl-3,4-dihydro-2H-isoquinolin-1-one] | < 10
6 | COc1cc2c(cc1OS(N)(=O)=O)CCN(S(=O)(=O)c1cccc(Cl)c1)C2 [compound 190, 2-(3-Chloro-benzenesulfonyl)-7-methoxy-6-O-sulfamoyl-1,2,3,4-tetrahydroisoquinoline] | 10 to 50
7 | COc1cc(OC)c(OC)cc1CN1CCc2cc(OS(N)(=O)=O)c(OC)cc2C1 [compound 95, 7-Methoxy-2-(2,4,5-trimethoxybenzyl)-6-O-sulfamoyl-1,2,3,4-tetrahydroisoquinoline] | < 10
8 | COc1cc2c(cc1OS(N)(=O)=O)CCN(Cc1cccc(OC)c1OC)C2 [compound 91, 7-Methoxy-2-(2,3-dimethoxybenzyl)-6-O-sulfamoyl-1,2,3,4-tetrahydroisoquinoline] | < 10
9 | COc1cc2c(cc1OS(N)(=O)=O)CCN(Cc1cccc(C)c1)C2 [compound 77, 7-Methoxy-2-(3-methylbenzyl)-6-O-sulfamoyl-1,2,3,4-tetrahydroisoquinoline] | 10 to 50
10 | COc1ccc(OC)c(CN2CCc3cc(OS(N)(=O)=O)c(OC)cc3C2)c1 [compound 94, 7-Methoxy-2-(2,5-dimethoxybenzyl)-6-O-sulfamoyl-1,2,3,4-tetrahydroisoquinoline] | < 10
11 | COc1cc2c(cc1OS(N)(=O)=O)CCN(S(=O)(=O)c1ccccc1C#N)C2 [compound 193, 2-(2-Cyano-benzenesulfonyl)-7-methoxy-6-O-sulfamoyl-1,2,3,4-tetrahydroisoquinoline] | < 10
12 | COc1cc2c(cc1OS(N)(=O)=O)CCN(Cc1cccc(C(C)=O)c1)C2 [compound 82, 2-(3-Acetylbenzyl)-7-methoxy-6-O-sulfamoyl-1,2,3,4-tetrahydroisoquinoline] | < 10
13 | COc1cc(CN2CCc3cc(OS(N)(=O)=O)c(OC)cc3C2)cc(OC)c1 [compound 76, 2-(3,5-Dimethoxybenzyl)-7-methoxy-6-O-sulfamoyl-1,2,3,4-tetrahydroisoquinoline] | < 10
14 | COc1cccc(S(=O)(=O)N2CCc3cc(OS(N)(=O)=O)c(OC)cc3C2)c1 [compound 188, 7-Methoxy-2-(3-methoxy-benzenesulfonyl)-6-O-sulfamoyl-1,2,3,4-tetrahydroisoquinoline] | 50 to 100
15 | COc1cc2c(cc1OS(N)(=O)=O)CCN(S(=O)(=O)c1cccc(OC(F)(F)F)c1)C2 [compound 192, 7-Methoxy-6-O-sulfamoyl-2-(3-trifluoromethoxy-benzenesulfonyl)-1,2,3,4-tetrahydroisoquinoline] | 50 to 100
16 | COc1cc2c(cc1OS(N)(=O)=O)CCN(Cc1cc(OC)c(OC)c(OC)c1)C2 [compound 90, 7-Methoxy-2-(3,4,5-trimethoxybenzyl)-6-O-sulfamoyl-1,2,3,4-tetrahydroisoquinoline] | < 10
17 | COc1cc2c(cc1OS(N)(=O)=O)CCN(Cc1cccc([N+](=O)[O-])c1)C2 [compound 100, 7-Methoxy-2-(3-nitrobenzyl)-6-O-sulfamoyl-1,2,3,4-tetrahydroisoquinoline] | < 10
18 | COc1cc2c(cc1OS(N)(=O)=O)CCN(C(=O)c1ccccc1OC)C2 [compound 122, 7-Methoxy-2-(2-methoxybenzoyl)-6-O-sulfamoyl-1,2,3,4-tetrahydroisoquinoline] | 10 to 50
19 | COc1cc2c(cc1OS(N)(=O)=O)CCN(S(=O)(=O)c1cccc(C#N)c1)C2 [compound 187, 2-(3-Cyano-benzenesulfonyl)-7-methoxy-6-O-sulfamoyl-1,2,3,4-tetrahydroisoquinoline] | > 100
20 | COc1cc2c(cc1OS(N)(=O)=O)CCN(Cc1ccc(C#N)cc1)C2 [compound 99, 2-(4-Cyanobenzyl)-7-methoxy-6-O-sulfamoyl-1,2,3,4-tetrahydroisoquinoline] | 50 to 100
21 | CCOc1cccc(CN2CCc3cc(OS(N)(=O)=O)c(OC)cc3C2)c1 [compound 80, 2-(3-Ethoxybenzyl)-7-methoxy-6-O-sulfamoyl-1,2,3,4-tetrahydroisoquinoline] | < 10
22 | COc1ccc(C(=O)N2CCc3cc(OS(N)(=O)=O)c(OC)cc3C2=O)cc1 [compound 147, 2-(4-Methoxybenzoyl)-7-methoxy-6-O-sulfamoyl-3,4-dihydro-2H-isoquinolin-1-one] | > 100
23 | COc1cccc(CN2CCc3cc(OS(N)(=O)=O)c(OC)cc3C2)c1 [compound 166, 7-Methoxy-2-(3-methoxybenzyl)-6-O-sulfamoyl-3,4-dihydro-2H-isoquinoline] | > 100
24 | COc1cccc(CN2CCc3cc(OS(N)(=O)=O)c(OC)cc3C2)c1 [compound 72, 7-Methoxy-2-(3-methoxybenzyl)-6-O-sulfamoyl-1,2,3,4-tetrahydroisoquinoline] | < 10
25 | COc1cc2c(cc1OS(N)(=O)=O)CCN(Cc1cccc(OC(F)(F)F)c1)C2 [compound 102, 7-Methoxy-2-(3-trifluoromethoxybenzyl)-6-O-sulfamoyl-1,2,3,4-tetrahydroisoquinoline] | < 10
26 | COc1ccccc1CN1CCc2cc(OS(N)(=O)=O)c(OC)cc2C1 [compound 165, 7-Methoxy-2-(2-methoxybenzyl)-6-O-sulfamoyl-3,4-dihydro-2H-isoquinoline] | > 100
27 | COc1cc(OC)cc(C(=O)N2CCc3cc(OS(N)(=O)=O)c(OC)cc3C2=O)c1 [compound 150, 2-(3,5-Dimethoxybenzoyl)-7-methoxy-6-O-sulfamoyl-3,4-dihydro-2H-isoquinolin-1-one] | < 10
28 | COc1ccc(CN2CCc3cc(OS(N)(=O)=O)c(OC)cc3C2)cc1 [compound 164, 7-Methoxy-2-(4-methoxybenzyl)-6-O-sulfamoyl-3,4-dihydro-2H-isoquinoline] | > 100
29 | COc1cc2c(cc1OS(N)(=O)=O)CCN(S(=O)(=O)c1ccccc1OC)C2 [compound 194, 7-Methoxy-2-(2-methoxy-benzenesulfonyl)-6-O-sulfamoyl-1,2,3,4-tetrahydroisoquinoline] | > 100
30 | COc1ccc(CN2CCc3cc(OS(N)(=O)=O)c(OC)cc3C2)cc1OC [compound 92, 7-Methoxy-2-(3,4-dimethoxybenzyl)-6-O-sulfamoyl-1,2,3,4-tetrahydroisoquinoline] | < 10
31 | COc1ccc(CN2CCc3cc(OS(N)(=O)=O)c(OC)cc3C2)cc1 [compound 73, 7-Methoxy-2-(4-methoxybenzyl)-6-O-sulfamoyl-1,2,3,4-tetrahydroisoquinoline] | 50 to 100
32 | COc1cc2c(cc1OS(N)(=O)=O)CCN(C(=O)c1cc(OC)c(OC)c(OC)c1)C2=O [compound 152, 7-methoxy-6-O-sulfamoyl-2-(3,4,5-trimethoxybenzoyl)-3,4-dihydro-2H-isoquinolin-1-one] | < 10
33 | COc1cc2c(cc1OS(N)(=O)=O)CCN(Cc1cccc(OC(C)=O)c1)C2 [compound 87, 2-(3-Acetoxybenzyl)-7-methoxy-6-O-sulfamoyl-1,2,3,4-tetrahydroisoquinoline] | 50 to 100

same assay, conditions: Homo sapiens, DU-145, 96 hours post-treatment, 50% growth inhibition

Row | Compound | GI50 [µM]
34 | COc1cccc(CN2Cc3cc(OC)c(OS(N)(=O)=O)cc3CC2(C)C)c1 [compound 230, 2-(3-Methoxybenzyl)-1,2,3,4-tetrahydro-7-methoxy-3,3-dimethylisoquinolin-6-yl sulfamate] | > 100
35 | COc1cc2c(cc1OS(N)(=O)=O)CC(C)(C)N(Cc1cc(OC)c(OC)c(OC)c1)C2 [compound 231, 2-(3,4,5-Trimethoxybenzyl)-1,2,3,4-tetrahydro-7-methoxy-3,3-dimethylisoquinolin-6-yl sulfamate] | > 100

same assay, conditions: Homo sapiens, DU-145, 96 hours post-treatment, triplicate

Row | Compound | GI50 [µM]
36 | COc1cc2c(cc1OCc1ccccc1)CCN(S(=O)(=O)c1cccc(Cl)c1)C2 [compound 173, 6-Benzyloxy-2-(3-chloro-benzenesulfonyl)-7-methoxy-1,2,3,4-tetrahydroisoquinoline] | > 100
37 | COc1ccc(CN2CCc3cc(O[Si](C(C)C)(C(C)C)C(C)C)c(OC)cc3C2=O)cc1 [compound 154, 7-Methoxy-2-(4-methoxybenzyl)-6-(triisopropylsilyloxy)-3,4-dihydro-2H-isoquinolin-1-one] | > 100
38 | COc1cc2c(cc1OCc1ccccc1)CCN(C(=O)c1ccc(C#N)cc1)C2=O [compound 136, 6-(Benzyloxy)-2-(4-cyanobenzoyl)-7-methoxy-3,4-dihydro-2H-isoquinoline-1-one] | > 100
39 | COc1cc2c(cc1O)CCN(Cc1cccc(C)c1)C2 [compound 44, 6-Hydroxy-7-methoxy-2-(3-methylbenzyl)-1,2,3,4-tetrahydroisoquinoline] | > 100
40 | COc1ccc(OC)c(CN2CCc3cc(OCc4ccccc4)c(OC)cc3C2)c1 [compound 21, 6-Benzyloxy-7-methoxy-2-(2,5-dimethoxybenzyl)-1,2,3,4-tetrahydroisoquinoline] | 10 to 50
